# Assay results as given in article PMC10569036.
# Assay: shake flask on a mixture of 185; loss from the water phase only; LC-Orbitrap peak areas
# Conditions: room
SMILES,"log partition 1-octanol / HPLC water, unbuffered, traces of methanol / DMSO [log10]","log partition butyl acetate / HPLC water, unbuffered, traces of methanol / DMSO [log10]","log partition chloroform / HPLC water, unbuffered, traces of methanol / DMSO [log10]","log partition cyclohexane / HPLC water, unbuffered, traces of methanol / DMSO [log10]","log partition dichloromethane / HPLC water, unbuffered, traces of methanol / DMSO [log10]","log partition n-hexane / HPLC water, unbuffered, traces of methanol / DMSO [log10]","log partition n-octane / HPLC water, unbuffered, traces of methanol / DMSO [log10]","log partition n-undecane / HPLC water, unbuffered, traces of methanol / DMSO [log10]","log partition oleylalcohol / HPLC water, unbuffered, traces of methanol / DMSO [log10]","log partition toluene / HPLC water, unbuffered, traces of methanol / DMSO [log10]"
CC(C)c1cccc(O)c1,-0.1403,-0.382,0.06183,-0.6197,-0.09834,-0.5466,-0.6932,-0.7318,-0.144,-0.5154
CC(=O)CCc1ccc(OC(C)=O)cc1,-0.06689,0.7696,1.426,-0.7757,1.412,-1.074,-1.39,-1.078,-0.5711,-0.2898
CN1C(=O)CCS(=O)(=O)C1c1ccc(Cl)cc1 (stereo not drawn),–,–,3.591,–,5.525,–,–,–,–,4.586
CCCCNS(=O)(=O)c1ccccc1,0.09093,-0.4267,0.044,-0.2649,-0.02662,-0.2215,-0.4356,-0.4781,0.1238,-0.1107
O=C(OC1CCCCC1)c1ccccc1C(=O)OC1CCCCC1,0.6596,0.2225,0.1245,-0.9365,0.1411,-0.6432,-1.045,-0.8058,-0.79,-1.067
CCOc1ccc2c(c1)C(C)CC(C)(C)N2 (stereo not drawn),1.166,0.4802,0.1266,0.1355,0.03099,0.4617,0.03342,0.09286,0.8298,-0.1412
N#CC(c1ccccc1)c1ccccc1,-0.3597,0.2978,-0.002518,-0.2823,0.1658,-0.257,-0.2917,-0.816,0.1292,0.1711
COc1ccccc1/C=C/C=O,1.387,0.7851,0.6596,-0.3102,0.6345,0.495,-0.2565,-0.1964,-0.5567,0.2589
CCCCC(O)(Cn1cncn1)c1ccc(Cl)cc1Cl (stereo not drawn),3.35,5.299,1.307,3.351,4.823,2.027,2.104,2.029,3.139,4.525
CCOC(=O)CC(=O)c1ccccc1,-0.2282,-0.1902,0.1944,-1.116,-0.2025,-1.048,-1.147,-0.8216,-0.4257,-0.3454
C=C(C)C(=O)OCCOCCOC(=O)C(=C)C,0.2475,-0.01795,0.3491,-0.1638,0.4156,-0.1437,-0.3242,-0.3846,0.1237,-0.03291
CC(C)Nc1nc(N)nc(Cl)n1,1.201,1.711,1.238,-0.6663,1.437,-0.7941,-0.5719,-1.115,1.559,0.5402
Cc1ccc(N)c(S(=O)(=O)O)c1,0.1434,0.1277,1.369,-0.01168,1.153,0.1369,-0.1323,-0.3053,-0.05327,0.5377
